According to ChEMBL document CHEMBL3045147, “Synthesis and evaluation of a series of novel imidazolidinone analogues of 6-aminoflavone as anticancer and anti-inflammatory agents” (Med Chem Res, 2013):
Converted amounts (≈) assume the structure as drawn. The source made the active and inactive calls. No cut-off for these calls is given here.

Experiments:
HeLa [1] = assay: Cell cycle arrest in Homo sapiens (human) HeLa cells assessed as accumulation of cells at S phase after 48 hr by FACS analysis (reference value: 6.34%); format: functional
HeLa [2] = assay: Cell cycle arrest in Homo sapiens (human) HeLa cells assessed as accumulation of cells at G0/G1 phase after 48 hr by FACS analysis (reference value: 74.27%); format: functional
MDA-MB-435 [3] = assay: Cytotoxicity against Homo sapiens (human) MDA-MB-435 cells assessed as inhibition of cell viability by SRB assay; format: functional, cell-based
HeLa [4] = assay: Cell cycle arrest in Homo sapiens (human) HeLa cells assessed as accumulation of cells at G2/M phase after 48 hr by FACS analysis (reference value: 18.65%); format: functional
MDA-MB-435 [5] = assay: Cytotoxicity against Homo sapiens (human) MDA-MB-435 cells assessed as inhibition of cell viability by MTT assay; format: functional, cell-based
HeLa [6] = assay: Cell cycle arrest in Homo sapiens (human) HeLa cells assessed as accumulation of cells at Sub-G0 phase after 48 hr by FACS analysis (reference value: 1.15%); format: functional
HeLa [7] = assay: Cytotoxicity against Homo sapiens (human) HeLa cells assessed as morphological changes after 24 hr by microscopic analysis; format: functional, cell-based
MDA-MB-435 [8] = assay: Ratio of 6-aminoflavone IC50 to compound IC50 for Homo sapiens (human) MDA-MB-435 cells; format: functional
HeLa [9] = assay: Cytotoxicity against Homo sapiens (human) HeLa cells assessed as inhibition of cell viability by SRB assay; format: functional, cell-based
[10] = Anticancer activity against Mus musculus (mouse) EAC cells xenografted in albino mouse assessed as mean survival time at 50 mg/kg/day administered for 9 days (reference value: 17.33 +/-0.21 days); format: functional, Ehrlich
[11] = Anticancer activity against Mus musculus (mouse) EAC cells xenografted in albino mouse assessed as increase in median life span at 50 mg/kg/day administered for 9 days; format: functional, Ehrlich
Rattus norvegicus [12] = assay: Anti-inflammatory activity in Wistar Rattus norvegicus (rat) assessed as inhibition of carrageenan-induced paw edema at 100 mg/kg/day, po measured after 3 hr; format: functional
[13] = Anticancer activity against Mus musculus (mouse) EAC cells xenografted in albino mouse assessed as mean survival time at 100 mg/kg/day administered for 9 days (reference value: 17.33 +/-0.21 days); format: functional, Ehrlich
[14] = Anticancer activity against Mus musculus (mouse) EAC cells xenografted in albino mouse assessed as increase in body weight at 100 mg/kg/day administered for 9 days measured on day 9 (reference value: 34.31 +/-1.06%); format: functional, Ehrlich
[15] = Anticancer activity against Mus musculus (mouse) EAC cells xenografted in albino mouse assessed as increase in body weight at 100 mg/kg/day administered for 9 days measured on day 12 (reference value: 44.42 +/-2.82%); format: functional, Ehrlich
[16] = Anticancer activity against Mus musculus (mouse) EAC cells xenografted in albino mouse assessed as increase in body weight at 100 mg/kg/day administered for 9 days measured on day 15 (reference value: 58.81 +/-2.67%); format: functional, Ehrlich
[17] = Anticancer activity against Mus musculus (mouse) EAC cells xenografted in albino mouse assessed as increase in body weight at 100 mg/kg/day administered for 9 days measured on day 3 (reference value: 4.56 +/-0.52%); format: functional, Ehrlich
[18] = Anticancer activity against Mus musculus (mouse) EAC cells xenografted in albino mouse assessed as increase in mean life span at 100 mg/kg/day administered for 9 days; format: functional, Ehrlich
[19] = Anticancer activity against Mus musculus (mouse) EAC cells xenografted in albino mouse assessed as median survival time at 50 mg/kg/day administered for 9 days (reference value: 17 days); format: functional, Ehrlich
Ehrlich = assay: Anticancer activity against Mus musculus (mouse) EAC cells xenografted in albino mouse assessed as decrease in ascites fluid volume at 50 to 100 mg/kg/day administered for 9 days; format: functional, organism-based
[20] = Anticancer activity against Mus musculus (mouse) EAC cells xenografted in albino mouse assessed as median survival time at 100 mg/kg/day administered for 9 days (reference value: 17 days); format: functional, Ehrlich
HeLa [21] = assay: Ratio of 6-aminoflavone IC50 to compound IC50 for Homo sapiens (human) HeLa cells; format: functional
[22] = Anticancer activity against Mus musculus (mouse) EAC cells xenografted in albino mouse assessed as increase in mean life span at 50 mg/kg/day administered for 9 days; format: functional, Ehrlich
[23] = Anticancer activity against Mus musculus (mouse) EAC cells xenografted in albino mouse assessed as increase in body weight at 100 mg/kg/day administered for 9 days measured on day 6 (reference value: 16.31 +/-0.48%); format: functional, Ehrlich
HeLa [24] = assay: Cytotoxicity against Homo sapiens (human) HeLa cells assessed as inhibition of cell viability by MTT assay; format: functional, cell-based
[25] = Anticancer activity against Mus musculus (mouse) EAC cells xenografted in albino mouse assessed as increase in median life span at 100 mg/kg/day administered for 9 days; format: functional, Ehrlich
Rattus norvegicus [26] = assay: Anti-inflammatory activity in Wistar Rattus norvegicus (rat) assessed as inhibition of carrageenan-induced paw edema at 50 mg/kg, po measured after 3 hr; format: functional

Compound COc1cccc2c1C(=O)c1c(O)c3c(c(O)c1C2=O)C[C@@](O)(C(=O)CO)C[C@@H]3O[C@H]1C[C@H](N)[C@H](O)[C@H](C)O1.Cl [DOXORUBICIN HYDROCHLORIDE] has an Activity (HeLa [1]) of 4.01%, an Activity (HeLa [2]) of 16.62% and an IC50 (MDA-MB-435 [3]) of 0.93 µg/mL. The Activity (HeLa [4]) was 76.76%, the IC50 (MDA-MB-435 [5]) was 0.77 µg/mL and the Activity (HeLa [6]) was 2.22%.
In the case of COc1ccc(/C=C2/N=C(c3ccccc3)N(c3ccc4oc(-c5ccccc5)cc(=O)c4c3)C2=O)cc1OC, the Activity (HeLa [1]) is reported as 14.1%, the Activity (HeLa [7]) is reported as “Active” and the “Ratio IC50” value (MDA-MB-435 [8]) is reported as 5. For the same compound, the IC50 (HeLa [9]) was 11.1 µg/mL (≈ 21 µM), the MST [10] was 22.33 days and the Activity (HeLa [2]) was 36.8%. The Activity [11] was 32.35%, the inhibition in vivo at 100 mg/kg/day (Rattus norvegicus [12]) was 49.8% and the IC50 (MDA-MB-435 [3]) was 11.9 µg/mL (≈ 22.6 µM). For the same compound, the MST [13] was 23 days, the Activity [14] was 13.63% and the Activity [15] was 17.47%. It also gave an Activity [16] of 19.99%, an Activity [17] of 3.58% and an Activity [18] of 32.72%. For the same compound, the MST [19] was 22.5 days, the inhibition (Ehrlich) was “Active” and the MST [20] was 23 days. For the same compound, the “Ratio IC50” value (HeLa [21]) was 5, the Activity [22] was 28.87% and the Activity [23] was 9.39%. The Activity (HeLa [4]) was 28.37%, the IC50 (MDA-MB-435 [5]) was 10.8 µg/mL (≈ 20.4 µM) and the IC50 (HeLa [24]) was 9.87 µg/mL (≈ 18.7 µM). The Activity (HeLa [6]) was 21.63% and the Activity [25] was 35.29%.
Compound CC(C)Cc1ccc(C(C)C(=O)O)cc1 (stereo not drawn) [IBUPROFEN] has an inhibition in vivo at 50 mg/kg (Rattus norvegicus [26]) of 67.1%.
Work on O=C1/C(=C\c2ccc(O)cc2)N=C(c2ccccc2)N1c1ccc2oc(-c3ccccc3)cc(=O)c2c1 yielded an IC50 (HeLa [9]) of 18.9 µg/mL (≈ 39 µM), an inhibition in vivo at 100 mg/kg/day (Rattus norvegicus [12]) of 47.6% and an IC50 (MDA-MB-435 [3]) of 21.4 µg/mL (≈ 44.1 µM). It also gave an IC50 (MDA-MB-435 [5]) of 18 µg/mL (≈ 37.2 µM) and an IC50 (HeLa [24]) of 16.4 µg/mL (≈ 33.8 µM).
For COc1ccc(/C=C2/N=C(c3ccccc3)N(c3ccc4oc(-c5ccccc5)cc(=O)c4c3)C2=O)cc1, the IC50 (HeLa [9]) was 17.6 µg/mL (≈ 35.3 µM), the inhibition in vivo at 100 mg/kg/day (Rattus norvegicus [12]) was 45.1% and the IC50 (MDA-MB-435 [3]) was 21.7 µg/mL (≈ 43.6 µM). It also gave an IC50 (MDA-MB-435 [5]) of 18.5 µg/mL (≈ 37.1 µM) and an IC50 (HeLa [24]) of 14.2 µg/mL (≈ 28.6 µM).
In the case of Nc1ccc2oc(-c3ccccc3)cc(=O)c2c1 [6-AMINOFLAVONE], the IC50 (HeLa [9]) is reported as 63.6 µg/mL (≈ 268 µM), the inhibition in vivo at 100 mg/kg/day (Rattus norvegicus [12]) is reported as 24.2% and the IC50 (MDA-MB-435 [3]) is reported as 78.4 µg/mL (≈ 330 µM). It also gave an IC50 (MDA-MB-435 [5]) of 59.5 µg/mL (≈ 251 µM) and an IC50 (HeLa [24]) of 55.8 µg/mL (≈ 235 µM).
Work on O=C1/C(=C\c2ccccc2)N=C(c2ccccc2)N1c1ccc2oc(-c3ccccc3)cc(=O)c2c1 yielded an IC50 (HeLa [9]) of 20.9 µg/mL (≈ 44.6 µM), an inhibition in vivo at 100 mg/kg/day (Rattus norvegicus [12]) of 38.2% and an IC50 (MDA-MB-435 [3]) of 26.4 µg/mL (≈ 56.3 µM). For the same compound, the IC50 (MDA-MB-435 [5]) was 24.3 µg/mL (≈ 51.8 µM) and the IC50 (HeLa [24]) was 20.1 µg/mL (≈ 42.9 µM).
For O=C1/C(=C\c2ccc(Cl)c(Cl)c2)N=C(c2ccccc2)N1c1ccc2oc(-c3ccccc3)cc(=O)c2c1, the IC50 (HeLa [9]) was 16 µg/mL (≈ 29.7 µM), the inhibition in vivo at 100 mg/kg/day (Rattus norvegicus [12]) was 36.5% and the IC50 (MDA-MB-435 [3]) was 20.1 µg/mL (≈ 37.5 µM). It also gave an IC50 (MDA-MB-435 [5]) of 16.9 µg/mL (≈ 31.4 µM) and an IC50 (HeLa [24]) of 15.2 µg/mL (≈ 28.3 µM).
